Measured values: US10137106B2, “Compositions and methods to treat niemann-pick disease” (Blanchette Rockefeller Neurosciences Institute, Inc., priority 2014, dated 2018)

Columns and labels:
Format in all cases: cell-based
PKC ε [1] = biological target: T1, PKC ε (Homo sapiens, UniProt Q02156); experiment: PKC ε activation (membrane translocation, immunoblot) in primary human neurons; design: host or cells: primary human cortical neurons
T1 sequence (Q02156 1-737): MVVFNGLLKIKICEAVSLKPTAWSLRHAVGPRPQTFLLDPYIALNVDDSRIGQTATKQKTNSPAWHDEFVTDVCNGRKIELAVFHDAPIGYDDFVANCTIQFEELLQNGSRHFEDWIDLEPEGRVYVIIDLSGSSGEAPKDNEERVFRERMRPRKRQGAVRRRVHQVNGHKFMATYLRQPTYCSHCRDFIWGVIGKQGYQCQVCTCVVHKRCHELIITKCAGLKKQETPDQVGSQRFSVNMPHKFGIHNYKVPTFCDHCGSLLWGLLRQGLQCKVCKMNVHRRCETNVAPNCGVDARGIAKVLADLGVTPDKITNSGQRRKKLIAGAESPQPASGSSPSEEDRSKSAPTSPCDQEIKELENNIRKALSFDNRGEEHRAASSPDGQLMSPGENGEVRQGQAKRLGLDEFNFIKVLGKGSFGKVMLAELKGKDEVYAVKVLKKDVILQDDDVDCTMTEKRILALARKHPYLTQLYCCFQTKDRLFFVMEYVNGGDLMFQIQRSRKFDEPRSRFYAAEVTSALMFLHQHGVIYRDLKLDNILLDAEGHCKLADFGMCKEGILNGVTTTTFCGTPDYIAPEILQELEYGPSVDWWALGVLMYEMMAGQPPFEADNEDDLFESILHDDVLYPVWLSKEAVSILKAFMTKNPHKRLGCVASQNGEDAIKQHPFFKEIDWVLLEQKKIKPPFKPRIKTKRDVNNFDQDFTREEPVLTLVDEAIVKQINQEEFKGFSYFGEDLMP
Method: PKC isozyme activation by bryostatin-1 at various concentrations in primary human neurons was evaluated. One month old primary human neurons were treated with 0 nM, 0.060 nM, 0.125 nM, 0.25 nM, 0.5 nM and 1.0 nM bryostatin 1 for 24 hr. Neurons were separated into soluble and membrane fractions and immunoblotted against PKC α and PKC ε. PKC activation was measured as the percentage of total protein in the membrane and reported as percentage of control. PKC staining levels were measured densitometrically. Data are represented as mean±SE of three independent experiments (Students t-test, *P<0.05 and **P<0.005).
PKC isozyme activation by bryostatin-1 at 0.25 nM in primary human neurons was evaluated. One month old primary human neurons were treated with ethanol (C), bryostatin 1 (0.25 nM) for 1 hr, 4 hr and 24 hr. Neurons were separated into soluble (S) and membrane (P) fractions and immunoblotted against PKC α, PKC ε and PKC δ. PKC activation was measured as the percentage of total protein in the membrane and reported as percentage of control. PKC staining levels were measured densitometrically.
Culture of primary human cortical neurons: Human primary neurons (ScienCell Research Laboratories, Carlsbad, Calif., USA) were plated on poly-L-lysine coated plates and were maintained in neuronal medium (ScienCell Research Laboratories, Carlsbad, Calif., USA) supplemented with the neuronal growth supplement (NGS, ScienCell Research Laboratories, Carlsbad, Calif., USA). For maintenance of neurons, half of the media was changed every 3 days. Fresh activators were added with every media change.
(§1) Cell lysis and Western blot analysis: Cells were harvested in homogenizing buffer (HB) containing 10 mM Tris-Cl (pH 7.4), 1 mM PMSF (phenylmethylsulfonylfluoride), 1 mM EGTA, 1 mM EDTA, 50 mM NaF and 20 μM leupeptin, and were lysed by sonication. The homogenate was centrifuged at 100,000×g for 15 min at 4° C. to obtain the cytosolic fraction (supernatant) and membrane (pellet). The pellet was resuspended in the HB by sonication. Protein concentration was measured using the Coomassie Plus (Bradford) Protein Assay kit (Pierce, Rockford, Ill., USA). Following quantification, 20 μg of protein from each sample was subjected to SDS-PAGE analysis in a 4-20% gradient Tris-Glycine polyacrylamide gel (Invitrogen, Carlsbad, Calif., USA). The separated protein was then transferred to a nitrocellulose membrane. The membrane was blocked with BSA and incubated with primary antibody overnight at 4° C. […] The blot was imaged in a ImageQuant RT-ECL (GE Life Sciences, Piscataway, N.J.) and densitometric quantification was performed using IMAL software. For quantifying expression of a protein, the densitometric value for the protein of interest was normalized against beta-actin (loading control).

PKC α [2] = biological target: T2, PKC α (Homo sapiens, UniProt P17252); experiment: PKC α activation in SH-SY5Y cells (cytosol/membrane fractions, isoform-specific antibodies); details: 0.27 nM, 5-60 min (FIG. 3)
Method: Three independent experiments were performed for each sample.
(§2) The homogenate was centrifuged at 100,000×g for 15 min at 4° C. to obtain the cytosolic fraction (supernatant) and membrane (pellet). […] The separated protein was then transferred to a nitrocellulose membrane.

PKC α [3] = biological target: T2, PKC α; experiment: PKC α activation (membrane translocation, immunoblot) in primary human neurons; design: host or cells: primary human cortical neurons
Method: as §2

PKC ε [4] = biological target: T1, PKC ε; experiment: PKC ε activation in SH-SY5Y cells (cytosol/membrane fractions, isoform-specific antibodies); details: 0.27 nM, 5-60 min (FIG. 3)
Method: PKC isozyme activation by bryostatin-1 at 0.27 nM in SH-SY5Y cells was evaluated. SH-SY5Y cells are human-derived cell line and are often used as in vitro models of neuronal function and differentiation. Cells were treated with bryostatin-1 (0.27 nM) for 0, 5, 15, 30 and 60 min. Samples were fractionated into cytosol and membrane fractions and analyzed with PKC isoform-specific antibodies. Three independent experiments were performed for each sample.
Cell culture and treatments: Human SH-SY5Y neuroblastoma cells (ATCC) were cultured in 45% F12K, 45% DMEM and 10% FBS.
as §1, with “The pellet was resuspended in the HB by sonication.” left out, “USA).” for “USA). The separated protein was then transferred to a nitrocellulose membrane. The membrane was blocked with BSA and incubated with primary antibody overnight at 4° C.”, “For quantifying expression of a protein, the densitometric value for the protein of interest was normalized against beta-actin (loading control).” left out

Structure (SMILES): CCC/C=C/C=C/C(=O)O[C@H]1/C(=C/C(=O)OC)C[C@H]2C[C@H]([C@@H](C)O)OC(=O)C[C@H](O)C[C@@H]3C[C@H](OC(C)=O)C(C)(C)[C@](O)(C[C@@H]4C/C(=C/C(=O)OC)C[C@H](/C=C/C(C)(C)[C@]1(O)O2)O4)O3 [bryostatin-1]
- PKC-ε activation, time course (PKC ε [1]; 0.25 nM, 1 hr, 4 hr and 24 hr (FIG. 2B)): induced PKC-ε activation
- PKC ε activation (percentage of total protein in the membrane, percentage of control) (PKC ε [1]; 0.060-1.0 nM, 24 hr (FIG. 1)): activated both PKC ε and PKC α
- PKC ε activation at about 1 nM (PKC ε [1]; about 1 nM, 24 hr): potent activation of both PKC ε and PKC α
- PKC ε activation at low concentrations (PKC ε [1]; low concentrations, 24 hr): potent PKC ε activation
- PKC α activation (PKC α [2]): activated both PKC ε and PKC α
- PKC α activation (percentage of total protein in the membrane, percentage of control) (PKC α [3]; 0.060-1.0 nM, 24 hr (FIG. 1)): activated both PKC ε and PKC α
- PKC α activation at about 1 nM (PKC α [3]; about 1 nM, 24 hr): potent activation of both PKC ε and PKC α
- PKC ε activation (PKC ε [4]): activated both PKC ε and PKC α
